“Also recorded” adds a separate entry of the source.
test system: healthy female panelists; assay: not given; conditions: already reported; humans; caffeine perorally administered, nitrazepam allowed to be inhaled; cited from earlier work

Row | Molecule | CNV amplitude change
1 | Cn1c(=O)c2c(ncn2C)n(C)c1=O [caffeine] | increases
2 | O=C1CN=C(c2ccccc2)c2cc([N+](=O)[O-])ccc2N1 [nitrazepam] | decreases

test system: not given; assay: not given; conditions: disclosed in Japanese Patent Application Laid-Open (kokai) No. 6-172781; also through inhalation of vaporized perfume; cited from earlier work

Row | Molecule | sedative effect
3 | COc1cc(C)cc(OC)c1 [DMMB, 1,3-dimethoxy-5-methylbenzene, reference compound] | has a sedative effect

test system: healthy female panelists; assay: CNV test (contingent negative variation) with inhaled scent samples; assay type: in vivo, human; conditions: 0.05% ethanol solution of each component, solo or combined; five healthy female adult panelists
Text: The psycho-sedative effect was investigated by measuring negative changes in electric potential, so-called contingent negative variation (CNV). CNV is known to be a slow cerebral potential variation which relates to psychological processes such as alertness, expectation, and anticipation and to changes in the level of consciousness.
In order to screen out a compound having a psycho-sedative or psycho-stimulative effect, a light signal which indicates start of movement is emitted two seconds after stimulation with a warning sound, and a panelist is required to react (i.e., push a button) simultaneously with the recognition of the light. During repetition of a series of such processes, an aromatic product sample is arranged about 10 cm under the nose of the panelist so that its scent can be acknowledged with breathing. An electrode for the measurement of CNV is set on the forehead of the panelist so as to record electric potential between the forehead and an earlobe. It has already been reported that the CNV amplitude increases when caffeine having an arousal effect is perorally administered to humans, whereas the amplitude decreases when nitrazepam having a sedative effect is allowed to be […].
In this test, the psycho-sedative effect was evaluated by use of the percentage as an index. A relative area of 100% or less indicates a sedative effect, and a relative area of 100% or more indicates an arousal effect.
Five healthy female panelists were subjected to the aforementioned CNV test.
Five healthy female adult panelists were subjected to the aforementioned CNV test.
(B) The following samples were prepared: a 1% ethanol solution of perilla aldehyde (commercial product); a 1% ethanol solution of perilla alcohol (commercial product); a 1% ethanol solution of DMMB (commercial product); and a 1% ethanol solution of lemon oil (commercial product). Five healthy female adult panelists were subjected to the aforementioned CNV test.
The following samples were prepared: a 0.05% ethanol solution of solo perilla aldehyde (1); a 0.05% ethanol solution of solo perilla alcohol (2); and an ethanol solution containing perilla aldehyde (0.05%) and perilla alcohol (0.05%) (3). Five healthy female adult panelists were subjected to the aforementioned CNV test.

Row | Molecule | synergistic psycho-stimulative effect by measured CNV values (FIG. 4)
4 | C=C(C)C1CC=C(C=O)CC1 (centres unmarked) [perilla aldehyde, dihydrocuminyl aldehyde] | acknowledged to have a psycho-stimulative effect

same assay, conditions: 1% ethanol solution, scent inhaled about 10 cm under the nose; five healthy female panelists; CNV area relative to blank (100%): 100% or less sedative, 100% or more arousal

Row | Molecule | psycho-sedative / psycho-stimulative effect by measured CNV values (FIG. 1)
5 | CC(C=O)Cc1ccc(C(C)(C)C)cc1 (centres unmarked) [lilial] | psycho-sedative effect similar to that of DMMB
6 | OCCc1ccccc1 [β-phenylethyl alcohol] | psycho-sedative effect similar to that of DMMB
7 | CCCCCC1CCC(=O)O1 (centres unmarked) [γ-nonalactone] | psycho-sedative effect similar to that of DMMB
8 | C=CC(C)=CCC=C(C)C [ocimene] | psycho-sedative effect similar to that of DMMB
9 | CC(C)=CCCC(C)CCO (centres unmarked) [citronellol] | psycho-sedative effect similar to that of DMMB
10 | Cc1ccc(CC=O)cc1 [p-methylphenylacetaldehyde] | psycho-sedative effect similar to that of DMMB
11 | C=CC(C)(CCC=C(C)C)OC(C)=O (centres unmarked) [linalyl acetate] | psycho-sedative effect similar to that of DMMB
12 | terpinyl butyrate | psycho-sedative effect similar to that of DMMB
13 | CC(C)=CCC/C(C)=C/CO [geraniol] | psycho-sedative effect similar to that of DMMB
14 | CC(C)=CCC/C(C)=C\CO [nerol] | psycho-sedative effect similar to that of DMMB
15 | CC(C)(O)CCCC1=CCC(C=O)CC1 (centres unmarked) [lyral] | psycho-sedative effect similar to that of DMMB
16 | CC/C=C\CCOC(=O)c1ccccc1O [Z-3-hexenyl salicylate, cis-3-hexenyl salicylate] | psycho-sedative effect similar to that of DMMB
17 | CC(=O)/C(C)=C/C1C(C)=CCCC1(C)C (centres unmarked) [γ-methyl ionone] | psycho-sedative effect similar to that of DMMB
18 | C=CC(C)(O)CCC=C(C)C (centres unmarked) [linalool] | psycho-sedative effect similar to that of DMMB
19 | CC=Cc1ccc(OC(C)=O)c(OC)c1 [acetyl isoeugenol, methoxy-4-acetoxypropenylbenzene] | psycho-sedative effect similar to that of DMMB
20 | CC(=O)OC/C=C(\C)CCC=C(C)C [geranyl acetate] | psycho-sedative effect similar to that of DMMB
21 | CCC1CCC(=O)O1 (centres unmarked) [γ-hexalactone] | psycho-sedative effect similar to that of DMMB
22 | CCCCCC1C(=O)CCC1CC(=O)OC (centres unmarked) [hedione, methyl dihydrojasmonate] | psycho-sedative effect similar to that of DMMB
23 | C=C(C)[C@H]1CC=C(C)CC1 [limonene] | psycho-sedative effect similar to that of DMMB
24 | CC(C=O)Cc1ccc2c(c1)OCO2 (centres unmarked) [helional] | psycho-sedative effect similar to that of DMMB
25 | CC(=O)C1(C)CC2=C(CCCC2(C)C)CC1C (centres unmarked) [Iso E Super] | psycho-sedative effect similar to that of DMMB
26 | CC1=CCC2C(=O)C1C2(C)C (centres unmarked) [chrysanthenone] | psycho-sedative effect similar to that of DMMB
27 | COC(=O)c1ccc(OC)cc1 [methyl anisate] | psycho-sedative effect similar to that of DMMB

same assay, conditions: 1% ethanol solution; five healthy female adult panelists; CNV area relative to blank (100%)

Row | Molecule | psycho-stimulative / psycho-sedative effect by measured CNV values (FIG. 2) | psycho-stimulative effect by measured CNV values (FIG. 3)
28 | CC1=CC(=O)C(C(C)C)CC1 (centres unmarked) [piperitone, p-menth-1-en-3-one] | psycho-stimulative effect similar to that of limone oil | 
29 | C/C=C(/C)C(=O)OCCc1ccccc1 [phenylethyl angelate, 2-phenylethyl(Z)-2-methyl-2-butenoate] | psycho-stimulative effect similar to that of limone oil | 
30 | C=C(C)C1CC=C(C=O)CC1 (centres unmarked) [perilla aldehyde, dihydrocuminyl aldehyde] |  | acknowledged to have a psycho-stimulative effect; also recorded: remarkably strong psycho-stimulative effect as compared with lemon oil
31 | CC(C)c1ccc(CO)cc1 [cuminyl alcohol, 4-isopropylbenzyl alcohol] | psycho-stimulative effect similar to that of limone oil | 
32 | C/C=C(/C)C(=O)OCCC(C)C [isoamyl angelate, isoamyl(Z)-2-methyl-2-butenoate] | psycho-stimulative effect similar to that of limone oil | 
33 | CC1=C2CCC(C)CC2OC1=O (centres unmarked) [menthalactone, 3,6-dimethyl-5,6,7,7a-tetrahydro-2(4H)-benzofuranone] | psycho-stimulative effect similar to that of limone oil | 
34 | CCCCCCCCCCCCCC(=O)OCC [ethyl myristate, ethyl tetradecanoate] | psycho-stimulative effect similar to that of limone oil | 
35 | COc1cc(C)cc(OC)c1 [DMMB, 1,3-dimethoxy-5-methylbenzene, reference compound] | psycho-sedative effect of DMMB was confirmed | 

Source: patent publication US20040242452A1, “Perfume composition” (priority 2001, published 2004)
